Assay results as given in ChEMBL document CHEMBL2331144, “Synthesis and anticancer activity of analogues of phenstatin, with a phenothiazine A-ring, as a new class of microtubule-targeting agents” (Bioorg Med Chem Lett, 2013).

Assays:
[1] = Inhibition of sheep brain tubulin polymerization using DAPI by fluorimetry; design: species or system Ovis aries
OVCAR-3 = assay: Growth inhibition of human OVCAR3 cells after 48 hrs by sulforhodamine B assay; format: functional; settings: OVCAR-3, 48 h
DU-145 = assay: Growth inhibition of human DU145 cells after 48 hrs by sulforhodamine B assay; format: functional; settings: DU-145, 48 h
786-0 = assay: Growth inhibition of human 786-0 cells after 48 hrs by sulforhodamine B assay; format: functional; settings: 786-0, 48 h
Ovis aries = species on record: Ovis aries; assay: Inhibition of sheep brain tubulin polymerization at 100 uM using DAPI by fluorimetry
KM12 = assay: Growth inhibition of human KM12 cells after 48 hrs by sulforhodamine B assay; format: functional; settings: KM12, 48 h
NCI-H522 = assay: Growth inhibition of human NCI-H522 cells after 48 hrs by sulforhodamine B assay; format: functional; settings: NCI-H522, 48 h
BT-549 = assay: Growth inhibition of human BT549 cells after 48 hrs by sulforhodamine B assay; format: functional; settings: BT-549, 48 h
HOP-92 = assay: Growth inhibition of human HOP92 cells after 48 hrs by sulforhodamine B assay; format: functional; settings: HOP-92, 48 h
OVCAR-4 = assay: Growth inhibition of human OVCAR4 cells after 48 hrs by sulforhodamine B assay; format: functional; settings: OVCAR-4, 48 h
MCF7 = assay: Growth inhibition of human MCF7 cells after 48 hrs by sulforhodamine B assay; format: functional; settings: MCF7, 48 h
[2] = Growth inhibition of human Hs 578T cells after 48 hrs by sulforhodamine B assay; format: functional
[3] = Growth inhibition of human NCI-ADR-RES cells after 48 hrs by sulforhodamine B assay; format: functional
HOP-62 = assay: Growth inhibition of human HOP62 cells after 48 hrs by sulforhodamine B assay; format: functional; settings: HOP-62, 48 h
RXF 393 = assay: Growth inhibition of human RXF393 cells after 48 hrs by sulforhodamine B assay; format: functional; settings: RXF 393, 48 h
MDA-MB-468 = assay: Growth inhibition of human MDA-MB-468 cells after 48 hrs by sulforhodamine B assay; format: functional; settings: MDA-MB-468, 48 h
A549 = assay: Growth inhibition of human A549/ATCC cells after 48 hrs by sulforhodamine B assay; format: functional; settings: A549, 48 h
SK-MEL-2 = assay: Growth inhibition of human SK-MEL-2 cells after 48 hrs by sulforhodamine B assay; format: functional; settings: SK-MEL-2, 48 h
M14 = assay: Growth inhibition of human M14 cells after 48 hrs by sulforhodamine B assay; format: functional; settings: M14, 48 h
RPMI-8226 = assay: Growth inhibition of human RPMI8226 cells after 48 hrs by sulforhodamine B assay; format: functional; settings: RPMI-8226, 48 h
SK-OV-3 = assay: Growth inhibition of human SKOV3 cells after 48 hrs by sulforhodamine B assay; format: functional; settings: SK-OV-3, 48 h
SF-295 = assay: Growth inhibition of human SF295 cells after 48 hrs by sulforhodamine B assay; format: functional; settings: SF-295, 48 h
CCRF-CEM = assay: Growth inhibition of human CCRF-CEM cells after 48 hrs by sulforhodamine B assay; format: functional
SK-MEL-28 = assay: Growth inhibition of human SK-MEL-28 cells after 48 hrs by sulforhodamine B assay; format: functional; settings: SK-MEL-28, 48 h
MDA-MB-435 = assay: Growth inhibition of human MDA-MB-435 cells after 48 hrs by sulforhodamine B assay; format: functional; settings: MDA-MB-435, 48 h
OVCAR-8 = assay: Growth inhibition of human OVCAR8 cells after 48 hrs by sulforhodamine B assay; format: functional; settings: OVCAR-8, 48 h
COLO 205 = assay: Growth inhibition of human COLO205 cells after 48 hrs by sulforhodamine B assay; format: functional; settings: COLO 205, 48 h
UACC-257 = assay: Growth inhibition of human UACC257 cells after 48 hrs by sulforhodamine B assay; format: functional; settings: UACC-257, 48 h
SN12C = assay: Growth inhibition of human SN12C cells after 48 hrs by sulforhodamine B assay; format: functional
SK-MEL-5 = assay: Growth inhibition of human SK-MEL-5 cells after 48 hrs by sulforhodamine B assay; format: functional; settings: SK-MEL-5, 48 h
UACC-62 = assay: Growth inhibition of human UACC62 cells after 48 hrs by sulforhodamine B assay; format: functional; settings: UACC-62, 48 h
HCT-15 = assay: Growth inhibition of human HCT15 cells after 48 hrs by sulforhodamine B assay; format: functional; settings: HCT-15, 48 h
HT-29 = assay: Growth inhibition of human HT-29 cells after 48 hrs by sulforhodamine B assay; format: functional; settings: HT-29, 48 h
LOX IMVI = assay: Growth inhibition of human LOXIMVI cells after 48 hrs by sulforhodamine B assay; format: functional
SW-620 = assay: Growth inhibition of human SW620 cells after 48 hrs by sulforhodamine B assay; format: functional; settings: SW-620, 48 h
SNB-75 = assay: Growth inhibition of human SNB75 cells after 48 hrs by sulforhodamine B assay; format: functional; settings: SNB-75, 48 h
SR = assay: Growth inhibition of human SR cells after 48 hrs by sulforhodamine B assay; format: functional
SF-539 = assay: Growth inhibition of human SF539 cells after 48 hrs by sulforhodamine B assay; format: functional; settings: SF-539, 48 h
[4] = Growth inhibition of human HCC2998 cells after 48 hrs by sulforhodamine B assay; format: functional; settings: HCC 2998, 48 h
K562 = assay: Growth inhibition of human K562 cells after 48 hrs by sulforhodamine B assay; format: functional; settings: K562, 48 h
IGROV-1 = assay: Growth inhibition of human IGROV1 cells after 48 hrs by sulforhodamine B assay; format: functional; settings: IGROV-1, 48 h
MDA-MB-231 = assay: Growth inhibition of human MDA-MB-231 cells after 48 hrs by sulforhodamine B assay; format: functional; settings: MDA-MB-231, 48 h
NCI-H23 = assay: Growth inhibition of human NCI-H23 cells after 48 hrs by sulforhodamine B assay; format: functional; settings: NCI-H23, 48 h
ACHN = assay: Growth inhibition of human ACHN cells after 48 hrs by sulforhodamine B assay; format: functional
NCI-H460 = assay: Growth inhibition of human NCI-H460 cells after 48 hrs by sulforhodamine B assay; format: functional; settings: NCI-H460, 48 h
UO-31 = assay: Growth inhibition of human UO31 cells after 48 hrs by sulforhodamine B assay; format: functional; settings: UO-31, 48 h
MOLT-4 = assay: Growth inhibition of human MOLT4 cells after 48 hrs by sulforhodamine B assay; format: functional; settings: MOLT-4, 48 h
A498 = assay: Growth inhibition of human A498 cells after 48 hrs by sulforhodamine B assay; format: functional; settings: A498, 48 h
SF-268 = assay: Growth inhibition of human SF268 cells after 48 hrs by sulforhodamine B assay; format: functional; settings: SF-268, 48 h
TK-10 = assay: Growth inhibition of human TK10 cells after 48 hrs by sulforhodamine B assay; format: functional; settings: TK-10, 48 h
CAKI-1 = assay: Growth inhibition of human CAKI-1 cells after 48 hrs by sulforhodamine B assay; format: functional; settings: CAKI-1, 48 h
HL-60(TB) = assay: Growth inhibition of human HL-60(TB) cells after 48 hrs by sulforhodamine B assay; format: functional; settings: HL-60, 48 h
HCT-116 = assay: Growth inhibition of human HCT116 cells after 48 hrs by sulforhodamine B assay; format: functional; settings: HCT-116, 48 h
PC-3 = assay: Growth inhibition of human PC3 cells after 48 hrs by sulforhodamine B assay; format: functional; settings: PC-3, 48 h

Work on COc1ccc(C(=O)N2c3ccccc3Sc3ccccc32)cc1N yielded an IC50 [1] of 11800 nM, a GI50 (OVCAR-3) of 101 nM and a GI50 (DU-145) of 291 nM. It also gave a GI50 (786-0) of 524 nM, an inhibition (Ovis aries) of 99% and a GI50 (KM12) of 97 nM. It also gave a GI50 (NCI-H522) of 35 nM, a GI50 (BT-549) of 877 nM and a GI50 (HOP-92) of 277 nM. The GI50 (OVCAR-4) was 1210 nM, the GI50 (MCF7) was 93 nM and the GI50 [2] was 424 nM. For the same compound, the GI50 [3] was 80 nM, the GI50 (HOP-62) was 226 nM and the GI50 (RXF 393) was 130 nM. For the same compound, the GI50 (MDA-MB-468) was 50 nM, the GI50 (A549) was 187 nM and the GI50 (SK-MEL-2) was 134 nM. The GI50 (M14) was 90 nM, the GI50 (RPMI-8226) was 328 nM and the GI50 (SK-OV-3) was 244 nM. The GI50 (SF-295) was 71 nM, the GI50 (CCRF-CEM) was 268 nM and the GI50 (SK-MEL-28) was 407 nM. The GI50 (MDA-MB-435) was 29 nM, the GI50 (OVCAR-8) was 366 nM and the GI50 (COLO 205) was 193 nM. For the same compound, the GI50 (UACC-257) was 1940 nM, the GI50 (SN12C) was 798 nM and the GI50 (SK-MEL-5) was 53 nM. The GI50 (UACC-62) was 127 nM, the GI50 (HCT-15) was 73 nM and the GI50 (HT-29) was 151 nM. For the same compound, the GI50 (LOX IMVI) was 881 nM, the GI50 (SW-620) was 90 nM and the GI50 (SNB-75) was 257 nM. For the same compound, the GI50 (SR) was 30 nM, the GI50 (SF-539) was 164 nM and the GI50 [4] was 683 nM. For the same compound, the GI50 (K562) was 40 nM, the GI50 (IGROV-1) was 721 nM and the GI50 (MDA-MB-231) was 310 nM. It also gave a GI50 (NCI-H23) of 437 nM, a GI50 (ACHN) of 472 nM and a GI50 (NCI-H460) of 289 nM. It also gave a GI50 (UO-31) of 650 nM, a GI50 (MOLT-4) of 380 nM and a GI50 (A498) of 129 nM. The GI50 (SF-268) was 958 nM, the GI50 (TK-10) was 575 nM and the GI50 (CAKI-1) was 290 nM. The GI50 (HL-60(TB)) was 245 nM, the GI50 (HCT-116) was 166 nM and the GI50 (PC-3) was 310 nM.
